Measured values reported in PubChem BioAssay AID248 (DTP/NCI, 2004).
Values joined by “and” are separate entries in the source; they are usually repeats but may differ in a detail not shown here. Identical values can stand only once. Inconclusive results and toxic doses are left out.

System: L1210 leukemia ip in BDF1 mice, survival T/C
Experiment: NCI In Vivo Anticancer Drug Screen. Data for tumor model L1210 Leukemia (intraperitoneal) in B6D2F1 (BDF1) mice
Conditions: endpoint: mean survival time, higher = longer survival
Procedure, shortened: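 Ratio derived from survival: compound-dosed mice over vehicle-dosed mice, all bearing a transplantable tumor.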

[1] = dose: 100.0 mg/kg/injection, schedule: Q01DX009 (ip), vehicle: saline with Tween-80
[2] = dose: 100.0 mg/kg/injection, schedule: Q04DX003 (ip), vehicle: saline with Tween-80
[3] = dose: 200.0 mg/kg/injection, schedule: Q01DX009 (ip), vehicle: saline with Tween-80
[4] = dose: 200.0 mg/kg/injection, schedule: Q04DX003 (ip), vehicle: saline with Tween-80
[5] = dose: 400.0 mg/kg/injection, schedule: Q01DX009 (ip), vehicle: saline with Tween-80
[6] = dose: 400.0 mg/kg/injection, schedule: Q04DX003 (ip), vehicle: saline with Tween-80
[7] = dose: 100.0 mg/kg/injection, schedule: Q01DX009 (ip), vehicle: Klucel (hydroxypropylcellulose) (HPC)
[8] = dose: 100.0 mg/kg/injection, schedule: Q04DX003 (ip), vehicle: Klucel (hydroxypropylcellulose) (HPC)
[9] = dose: 200.0 mg/kg/injection, schedule: Q01DX009 (ip), vehicle: Klucel (hydroxypropylcellulose) (HPC)
[10] = dose: 200.0 mg/kg/injection, schedule: Q04DX003 (ip), vehicle: Klucel (hydroxypropylcellulose) (HPC)
[11] = dose: 400.0 mg/kg/injection, schedule: Q01DX009 (ip), vehicle: Klucel (hydroxypropylcellulose) (HPC)
[12] = dose: 400.0 mg/kg/injection, schedule: Q04DX003 (ip), vehicle: Klucel (hydroxypropylcellulose) (HPC)
[13] = dose: 25.0 mg/kg/injection, schedule: Q04DX003 (ip), vehicle: saline
[14] = dose: 50.0 mg/kg/injection, schedule: Q04DX003 (ip), vehicle: saline
[15] = dose: 100.0 mg/kg/injection, schedule: Q04DX003 (ip), vehicle: saline
[16] = dose: 200.0 mg/kg/injection, schedule: Q04DX003 (ip), vehicle: saline
[17] = dose: 400.0 mg/kg/injection, schedule: Q04DX003 (ip), vehicle: saline

SMILES: CCCCN(CC)/N=N/c1nc[nH]c1C(N)=O
- T/C (dose: 100.0 mg/kg/injection, schedule: Q01DX001 (ip), vehicle: saline with Tween-80): 95 % of control
- T/C [1]: 117 % of control
- T/C [2]: 94 % of control
- T/C (dose: 200.0 mg/kg/injection, schedule: Q01DX001 (ip), vehicle: saline with Tween-80): 101 % of control
- T/C [3]: 124 % of control
- T/C [4]: 110 % of control
- T/C (dose: 400.0 mg/kg/injection, schedule: Q01DX001 (ip), vehicle: saline with Tween-80): 116 % of control
- T/C [5]: 88 % of control
- T/C [6]: 103 % of control

SMILES: CC(C)(C)C(=O)CC(=O)C(C)(C)C.CC(C)(C)C(=O)CC(=O)C(C)(C)C.CC(C)(C)C(=O)CC(=O)C(C)(C)C.[Al]
- T/C [7]: 91 % of control
- T/C [8]: 91 % of control
- T/C [9]: 94 % of control
- T/C [10]: 94 % of control
- T/C [11]: 97 % of control
- T/C [12]: 95 % of control

SMILES: CCCCCCCCCCCCCCCCC(C(=O)OC)S(=O)(=O)O (stereo not drawn)
- T/C (dose: 100.0 mg/kg/injection, schedule: Q04DX002 (ip), vehicle: saline): 102 % of control
- T/C (dose: 200.0 mg/kg/injection, schedule: Q04DX002 (ip), vehicle: saline): 124 % of control
- T/C (dose: 400.0 mg/kg/injection, schedule: Q04DX002 (ip), vehicle: saline): 102 % of control

SMILES: COC(=O)c1cccc(C)c1NC(=O)NCCCl
- T/C [8]: 96 % of control
- T/C [10]: 96 % of control
- T/C [12]: 94 % of control

SMILES: c1ccc(COC2NCCN2Cc2ccccc2)cc1 (stereo not drawn)
- T/C (dose: 100.0 mg/kg/injection, schedule: Q01DX001 (ip), vehicle: saline): 98 % of control
- T/C (dose: 200.0 mg/kg/injection, schedule: Q01DX001 (ip), vehicle: saline): 101 % of control
- T/C (dose: 400.0 mg/kg/injection, schedule: Q01DX001 (ip), vehicle: saline): 101 % of control

SMILES: CCCCN(CCCC)c1ccc(/C=C/c2ccnc3ccccc23)cc1
- T/C (dose: 100.0 mg/kg/injection, schedule: Q01DX009 (ip), vehicle: carboxymethylcellulose (CMC)): 101 % of control and 103 % of control
- T/C (dose: 100.0 mg/kg/injection, schedule: Q04DX002 (ip), vehicle: carboxymethylcellulose (CMC)): 102 % of control
- T/C (dose: 100.0 mg/kg/injection, schedule: Q04DX003 (ip), vehicle: carboxymethylcellulose (CMC)): 97 % of control
- T/C (dose: 200.0 mg/kg/injection, schedule: Q01DX001 (ip), vehicle: carboxymethylcellulose (CMC)): 92 % of control
- T/C (dose: 200.0 mg/kg/injection, schedule: Q01DX009 (ip), vehicle: carboxymethylcellulose (CMC)): 101 % of control and 104 % of control
- T/C (dose: 200.0 mg/kg/injection, schedule: Q04DX002 (ip), vehicle: carboxymethylcellulose (CMC)): 108 % of control
- T/C (dose: 200.0 mg/kg/injection, schedule: Q04DX003 (ip), vehicle: carboxymethylcellulose (CMC)): 100 % of control
- T/C (dose: 400.0 mg/kg/injection, schedule: Q01DX009 (ip), vehicle: carboxymethylcellulose (CMC)): 101 % of control and 103 % of control
- T/C (dose: 400.0 mg/kg/injection, schedule: Q04DX002 (ip), vehicle: carboxymethylcellulose (CMC)): 102 % of control
- T/C (dose: 400.0 mg/kg/injection, schedule: Q04DX003 (ip), vehicle: carboxymethylcellulose (CMC)): 97 % of control
- T/C (dose: 800.0 mg/kg/injection, schedule: Q01DX001 (ip), vehicle: carboxymethylcellulose (CMC)): 92 % of control
- T/C (dose: 1600.0 mg/kg/injection, schedule: Q01DX001 (ip), vehicle: carboxymethylcellulose (CMC)): 88 % of control

SMILES: CCC(CO)Nc1nc2ccc(Cl)cc2c2ccccc12 (stereo not drawn)
- T/C [7]: 104 % of control
- T/C [8]: 102 % of control
- T/C [9]: 90 % of control
- T/C [10]: 111 % of control
- T/C [11]: 103 % of control
- T/C [12]: 107 % of control

SMILES: CCCCC(CC)C(O)CC(O)CC (stereo not drawn)
- T/C [1]: 92 % of control
- T/C [3]: 92 % of control
- T/C [5]: 95 % of control

SMILES: Cc1nc(N)sc1C
- T/C (dose: 25.0 mg/kg/injection, schedule: Q04DX002 (ip), vehicle: saline with Tween-80): 100 % of control
- T/C [13]: 89 % of control
- T/C (dose: 50.0 mg/kg/injection, schedule: Q04DX002 (ip), vehicle: saline with Tween-80): 102 % of control
- T/C [14]: 100 % of control
- T/C (dose: 75.0 mg/kg/injection, schedule: Q01DX001 (ip), vehicle: carboxymethylcellulose (CMC)): 100 % of control
- T/C [15]: 102 % of control
- T/C (dose: 150.0 mg/kg/injection, schedule: Q01DX001 (ip), vehicle: carboxymethylcellulose (CMC)): 102 % of control
- T/C (dose: 300.0 mg/kg/injection, schedule: Q01DX001 (ip), vehicle: carboxymethylcellulose (CMC)): 100 % of control

SMILES: NC(=O)C1CC=CCC1C(=O)O (stereo not drawn)
- T/C (dose: 100.0 mg/kg/injection, schedule: Q01DX009 (ip), vehicle: other): 88 % of control
- T/C (dose: 200.0 mg/kg/injection, schedule: Q01DX009 (ip), vehicle: other): 100 % of control
- T/C (dose: 400.0 mg/kg/injection, schedule: Q01DX009 (ip), vehicle: other): 92 % of control

SMILES: CS(=O)(=O)Oc1c(Cl)cc(S(=O)(=O)F)cc1Cl
- T/C [7]: 104 % of control
- T/C [9]: 102 % of control

SMILES: NS(=O)(=O)c1ccc(N=Nc2nc3[nH]cnc(=S)c3[nH]2)cc1
- T/C (dose: 8.0 mg/kg/injection, schedule: Q01DX009 (ip), vehicle: saline): 116 % of control
- T/C (dose: 15.0 mg/kg/injection, schedule: Q01DX009 (ip), vehicle: saline): 121 % of control
- T/C (dose: 62.5 mg/kg/injection, schedule: Q01DX015 (ip), vehicle: saline): 115 % of control
- T/C (dose: 125.0 mg/kg/injection, schedule: Q01DX015 (ip), vehicle: saline): 121 % of control
- T/C (dose: 250.0 mg/kg/injection, schedule: Q01DX009 (ip), vehicle: saline): 104 % of control
- T/C (dose: 250.0 mg/kg/injection, schedule: Q01DX015 (ip), vehicle: saline): 153 % of control

SMILES: C#CC[N+]12CN3CN(CN(C3)C1)C2
- T/C [15]: 101 % of control
- T/C [16]: 98 % of control
- T/C [17]: 102 % of control

SMILES: CCCCCCCCCCCC(=O)NC(=S)Nc1ccc(C)c(Cl)c1
- T/C [8]: 89 % of control
- T/C [10]: 95 % of control
- T/C [12]: 90 % of control

SMILES: CCC1(c2ccccc2)CN(C)C1=O (stereo not drawn)
- T/C (dose: 25.0 mg/kg/injection, schedule: Q01DX009 (ip), vehicle: saline): 103 % of control
- T/C [13]: 92 % of control
- T/C (dose: 50.0 mg/kg/injection, schedule: Q01DX009 (ip), vehicle: saline): 106 % of control
- T/C [14]: 97 % of control
- T/C (dose: 100.0 mg/kg/injection, schedule: Q01DX009 (ip), vehicle: saline): 105 % of control
- T/C [15]: 97 % of control
- T/C (dose: 200.0 mg/kg/injection, schedule: Q01DX009 (ip), vehicle: saline): 102 % of control
- T/C [16]: 95 % of control
- T/C (dose: 400.0 mg/kg/injection, schedule: Q01DX009 (ip), vehicle: saline): 100 % of control
- T/C [17]: 92 % of control

SMILES: CCCCCCCCCCCC[N+](C)(C)C(C)Cc1ccccc1 (stereo not drawn)
- T/C (dose: 10.0 mg/kg/injection, schedule: Q01DX001 (ip), vehicle: saline): 98 % of control
- T/C (dose: 20.0 mg/kg/injection, schedule: Q01DX001 (ip), vehicle: saline): 98 % of control

SMILES: C=CCN(CC=C)C(=O)C1C2CC3OC(=O)C1C3C2 (stereo not drawn)
- T/C [15]: 94 % of control and 104 % of control
- T/C [16]: 109 % of control and 104 % of control
- T/C [17]: 94 % of control and 102 % of control

SMILES: CCC(C)NC(=O)Nc1cccc(Cl)c1C (stereo not drawn)
- T/C [1]: 86 % of control
- T/C [2]: 90 % of control
- T/C [4]: 95 % of control
- T/C [5]: 89 % of control
- T/C [6]: 103 % of control

SMILES: COC(=O)CSc1nc2ccccc2[nH]1
- T/C (dose: 100.0 mg/kg/injection, schedule: Q04DX002 (ip), vehicle: Klucel (hydroxypropylcellulose) (HPC)): 104 % of control
- T/C (dose: 200.0 mg/kg/injection, schedule: Q04DX002 (ip), vehicle: Klucel (hydroxypropylcellulose) (HPC)): 100 % of control
- T/C (dose: 400.0 mg/kg/injection, schedule: Q04DX002 (ip), vehicle: Klucel (hydroxypropylcellulose) (HPC)): 100 % of control
